Measurements taken from patent publication US20240024350A1, “ANTI-CANCER COMPOSITION CONTAINING AURANOFIN AND MERCAPTO COMPOUND AND USE THEREOF” (SUN YAT-SEN UNIVERSITY, priority 2020, published 2024).
Like-named read-outs stand apart in the source and are kept apart here.

How the values were obtained:
TrxR = assay: Intracellular TrxR activity in HepG2 cells (DTNB reduction); type: cell-based, human; details: 0.5 μM auranofin alone
Description: HepG2 cells were used as a test subject.
The cells were inoculated into a 6-well plate at 2×10^5 cell/well and incubated for 24 h.
After the incubation, the cell culture medium was replaced with 30% FBS to simulate the high concentration mercapto environment under the normal physiological condition, and used as a control (without adding any reagents). The experimental group was added with 0.5 μM of auranofin for incubation at 37° C. for 30 min, and then added with the mercapto compound (DEDT, β-mercaptoethanol or mercaptoethylamine) for incubation for 30 min (final concentration of DMSO in the system was ≤1%). The incubated cells were washed for 3 times with PBS, added with 100 μL of icy lysis buffer (containing 50 mM of phosphate buffer with pH 7.4, 1 mM EDTA, and 0.10% Triton-X 100), and then lysed on ice for 5 min to collect the cell lysate.
100 μL of buffer (containing 50 mM of potassium phosphate with pH 7.4, 1 mM EDTA, and 0.2 mM NADPH) was added to the collected cell lysate (10 μg protein), 5,5′-dithiobis (2-nitrobenzoic acid) (DTNB, with a final concentration of 3 mM) was added to initiate a reaction, and the activity of TrxR was obtained on the basis of the increased OD value in 10 minutes (OD detection wavelength was 410 nm). Auranofin alone was the positive control sample, and the blank group was the negative control.

[1] = system: HCT116 human colon cancer cells; assay: MTT colorimetric proliferation / cell survival assay, HCT116

For `CC(=O)OC[C@H]1O[C@@H]([S-])[C@H](OC(C)=O)[C@@H](OC(C)=O)[C@@H]1OC(C)=O.CCP(CC)CC.[Au+]` [Auranofin], the “Activity of TrxR” value (TrxR; with 30% FBS) was 63.6%, the “Activity of TrxR” value (TrxR; with 30% FBS, listed as Positive control) was 63.6% and the “Activity of TrxR” value (TrxR; without FBS, relative to negative control 100%) was 15.9%. For the same molecule, the “Activity of TrxR” value (TrxR; without FBS, relative to negative control 100%, listed as Positive control) was 15.9%, the “Cell survival rate (%) HCT116” value ([1]; colon cancer, TGTA 50 μM) was 75 ± 5% and the “Cell survival rate after addition of 10 μM auranofin (%)” value ([1]; compound plus 10 μM auranofin, with 30% FBS, 50 μM for TGTA, β-mercaptoethanol, mercaptoethylamine, DEDT, listed as Auranofin = auranofin alone) was 75 ± 5%. The IC50 ([1]; read-out: IC50 HCT116 Human colon cancer cells, auranofin alone, without BSA/FBS) was 1 µM, the IC50 ([1]; read-out: IC50 HCT116 Human colon cancer cells, with 10% FBS, mercapto compound added 1 h after auranofin, MTT after 24 h) was 3.4 µM and the IC50 ([1]; read-out: IC50 HCTI16 Human colon cancer cells, containing 40 mg/mL BSA, 200 μM of added compound) was 30 µM. For the same molecule, the IC50 ([1]; read-out: IC50 value, proliferation of HCT116 human colon cancer cells, under the normal physiological condition, auranofin alone) was greater than 30 µM.
